In ChEMBL document CHEMBL1146663, “Anti-inflammatory flavonoids and pterocarpanoid from Crotalaria pallida and C. assamica” (Bioorg Med Chem Lett, 2004):

How the values were obtained:
Mus musculus [1] = organism: Mus musculus; assay: Inhibitory effect of compound on the accumulation of NO2 in the culture media of RAW 264.7 cells in response to LPS; assay type: functional, cell-based
Mus musculus [2] = organism: Mus musculus; assay: Inhibitory effect of compound on the accumulation of NO2 in the culture media of N9 cells in response to LPS/IFN-gamma; assay type: functional, cell-based
Rattus norvegicus [3] = organism: Rattus norvegicus; assay: Inhibitory effect of compound on superoxide anion generation in rat neutrophils stimulated with fMLP/CB; assay type: functional
Rattus norvegicus [4] = organism: Rattus norvegicus; assay: Inhibitory effect of compound on superoxide anion generation in rat neutrophils stimulated with PMA; assay type: functional
Mus musculus [5] = organism: Mus musculus; assay: Inhibitory effect of compound on the accumulation of NO2 in the culture media of RAW 264.7 cells in response to LPS; potent effect; assay type: functional
Mus musculus [6] = organism: Mus musculus; assay: Inhibitory effect of compound on the accumulation of NO2 in the culture media of N9 cells in response to LPS/IFN-gamma; potent effect; assay type: functional

Compound | IC50 (Mus musculus [1]) | IC50 (Mus musculus [2]) | IC50 (Rattus norvegicus [3]) | IC50 (Rattus norvegicus [4]) | IC50 (Mus musculus [5]) | IC50 (Mus musculus [6])
CC(=N)NCc1cccc(CN)c1 [1400W] | 6.1 µM | 2.2 µM |  |  |  | 
O=c1c(-c2ccc(O)cc2O)coc2cc(O)ccc12 | > 30 µM | > 30 µM | 25.1 µM | > 30 µM |  | 
O=c1cc(-c2ccc(O)cc2)oc2cc(O)cc(O)c12 [APIGENIN] | 10.7 µM | > 30 µM | 3.4 µM | > 30 µM |  | 
CC(=O)c1cc2c3c(ccc2o1)[C@@H]1COc2cc(O)ccc2[C@@H]1O3 [CROTAFURAN B] |  |  |  |  | potent effect | potent effect
COc1cc(O)ccc1-c1coc2cc(O)cc(O)c2c1=O [THERALIN] | > 30 µM | > 30 µM | > 30 µM | > 30 µM |  | 
O=c1c(O)c(-c2ccc(O)cc2)oc2cc(OC3O[C@H](CO)[C@@H](O)[C@H](O)[C@H]3O)cc(O)c12 (stereo partly specified) | > 30 µM | > 30 µM | > 30 µM | > 30 µM |  | 
CN1CCN(CCCN2c3ccccc3Sc3ccc(C(F)(F)F)cc32)CC1 [TRIFLUOPERAZINE] |  |  | 6.6 µM | 2.7 µM |  | 
C=C(C)c1cc2c3c(ccc2o1)[C@@H]1COc2cc(O)ccc2[C@@H]1O3 [CROTAFURAN A] |  |  |  |  | potent effect | potent effect
O=c1c(-c2ccc(O)cc2O)coc2cc(O)cc(O)c12 | > 30 µM | > 30 µM | > 30 µM | > 30 µM |  | 
O=c1cc(-c2ccc(O)cc2)oc2cc(O)ccc12 | > 30 µM | > 30 µM | > 30 µM | > 30 µM |  | 
C[C@](O)(CO)c1cc2c3c(ccc2o1)[C@@H]1COc2cc(O)ccc2[C@@H]1O3 | > 30 µM | 13.9 µM | > 30 µM | > 30 µM |  | 
